Assay results reported in patent US20230339854A1, “Negative Allosteric Modulation of GluN3-Containing N-Methyl-D-Aspartate Receptors” (Emory University, priority 2020, published 2023).

Target: T1, human GluN1^FA,TL/GluN3A receptors (Homo sapiens, UniProt Q8TCU5)
T1 construct: Human GluN3A (NP_597702.2) and rat GluN3B (NP_579842.2) were synthesized and subcloned into SP6 plasmids; expressed in transfected cells; host or cells: Xenopus laevis oocytes, cRNA injection (GluN1:GluN3 1:3)
Test: Two-electrode voltage-clamp recordings of GluN1^FA,TL/GluN3A receptors in Xenopus oocytes
Type: cell-based
Conditions: read-out: hGluN1^FA,TL/hGluN3A (100 × Idrug/Icontrol at 30 μM drug)
Description: cDNA encoding human wild-type (WT) GluN1-1a (GenBank accession numbers NP_015566, hereafter GluN1) and rat GluN1-1a (NP_058706.1) were synthesized and subcloned into pGEMHE plasmid; some experiments used the rat splice variant GluN1-4a (NP_001257531.1). Human GluN3A (NP_597702.2) and rat GluN3B (NP_579842.2) were synthesized and subcloned into SP6 plasmids. For most experiments, human GluN1 was co-expressed with human GluN3A, except for mutagenesis experiments where rat GluN1 was co-expressed with human GluN3A. Rat GluN1-4a was always expressed with rat GluN3B.
Defolliculated Xenopus laevis oocytes (stage V-VI) were obtained from Ecocyte BioScience (Austin, Texas), or prepared from commercially available Xenopus ovaries (Xenopus 1, Dexter, MI) as previously described (Hansen, et al., Mol. Pharmacol., 2013). A Drummond Nanoject II (Broomall, PA) was used to inject oocytes with cRNAs encoding GluN1 and GluN3 at a 1:3 ratio in RNase-free water. The cRNA was diluted as needed to give responses with amplitudes ranging between 200-2000 nA (0.2-10 ng total cRNA). Following cRNA injection, the oocytes were stored at 15-19° C. in Barth's solution that contained (in mM) 88 NaCl, 2.4 NaHCO3, 1 KCl, 0.33 Ca(NO3)2, 0.41 CaCl2), 0.82 MgSO4, and 5 Tris-HCl (pH 7.4 with NaOH), supplemented with 1 μg/ml streptomycin (Invitrogen, Carlsbad, CA) and 100 μg/ml gentamicin (Fisher Scientific, Pittsburgh, PA). Recordings were performed 2-5 days following cRNA microinjection at room temperature (23° C.) using a two-electrode voltage-clamp amplifier (OC725, Warner Instrument, Hamilton, CT). The signal was low-pass filtered at 10-20 Hz (4-pole, −3 dB Bessel) and digitized at the Nyquist rate using PCI-6025E or USB-6212 BNC data acquisition boards (National Instruments, Austin, TX) using EasyOocyte (http://www.easyoocyte.io/). Oocytes were placed in a custom-made chamber and continuously perfused (2.5 ml/min) with oocyte recording solution containing (in mM) 90 NaCl, 1 KCl, 10 HEPES, 0.5-1.0 BaCl2, and 0.01 EDTA (pH 7.4 with NaOH). Solutions were applied by gravity, and solution exchange was controlled through a rotary valve (Hamilton, Reno, NV). Recording electrodes were filled with 0.3-3.0 M KCl, and current responses were recorded at a holding potential of −40 mV.
Response (%)=(100−minimum)/(1+([concentration]/IC50)^nH)+minimum (2) • where nH is the Hill slope, IC50 is the concentration that produces a half-maximal effect, and minimum is the degree of residual inhibition at a saturating concentration of the negative allosteric modulator.
The afore-referenced compounds were screened in the same assay as EU1180-438 to determine their effects on hGluN1^FA,TL/hGluN3A receptors. Selected compounds that inhibited by more than 20% at the concentration at which they were initially evaluated (either 10 or 30 μM) were analyzed further, and a dose-response curve was generated to determine their IC50 values.

T1 sequence (Q8TCU5 24-1115, other chains not shown): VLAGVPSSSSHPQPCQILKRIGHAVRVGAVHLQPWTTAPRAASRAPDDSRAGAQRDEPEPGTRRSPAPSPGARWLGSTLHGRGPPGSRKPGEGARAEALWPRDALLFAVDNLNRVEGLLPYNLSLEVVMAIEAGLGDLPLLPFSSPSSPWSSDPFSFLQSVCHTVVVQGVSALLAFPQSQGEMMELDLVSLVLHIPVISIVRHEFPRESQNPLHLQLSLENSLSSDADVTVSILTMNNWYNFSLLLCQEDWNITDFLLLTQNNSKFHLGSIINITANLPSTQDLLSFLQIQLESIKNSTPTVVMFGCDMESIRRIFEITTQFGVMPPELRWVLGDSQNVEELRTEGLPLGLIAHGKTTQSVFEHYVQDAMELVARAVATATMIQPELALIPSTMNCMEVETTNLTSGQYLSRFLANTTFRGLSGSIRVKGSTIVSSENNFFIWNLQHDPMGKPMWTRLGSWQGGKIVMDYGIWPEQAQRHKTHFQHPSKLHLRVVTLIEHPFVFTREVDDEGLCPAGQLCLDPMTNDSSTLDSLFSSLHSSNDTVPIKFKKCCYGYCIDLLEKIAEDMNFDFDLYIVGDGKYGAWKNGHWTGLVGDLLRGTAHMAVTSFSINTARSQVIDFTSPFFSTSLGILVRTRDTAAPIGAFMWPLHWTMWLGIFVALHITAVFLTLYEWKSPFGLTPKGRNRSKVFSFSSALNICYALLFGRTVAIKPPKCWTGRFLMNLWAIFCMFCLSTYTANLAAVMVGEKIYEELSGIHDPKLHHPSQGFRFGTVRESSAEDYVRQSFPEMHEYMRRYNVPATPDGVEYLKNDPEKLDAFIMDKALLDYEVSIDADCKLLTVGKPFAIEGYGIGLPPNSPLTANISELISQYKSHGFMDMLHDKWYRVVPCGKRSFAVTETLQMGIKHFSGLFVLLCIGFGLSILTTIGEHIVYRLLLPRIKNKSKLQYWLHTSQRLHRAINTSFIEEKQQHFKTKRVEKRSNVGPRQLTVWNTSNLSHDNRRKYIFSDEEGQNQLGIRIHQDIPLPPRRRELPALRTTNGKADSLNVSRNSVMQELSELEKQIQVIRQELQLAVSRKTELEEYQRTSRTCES

remaining activity at 30 µM | Structure (SMILES)
98% | CC(C)Oc1ccc(C(COc2ccc(OC(F)(F)F)cc2)N2Cc3ccc(F)cc3C2=O)cc1 (stereo not drawn) [EU1180-542, 6-fluoro-2-(1-(4-isopropoxyphenyl)-2-(4-(trifluoromethoxy)phenoxy)ethyl)isoindolin-1-one]
98% | CC(C)Oc1ccc(C(COc2ccc(OC(F)(F)F)cc2)N2Cc3cc(F)ccc3C2=O)cc1 (stereo not drawn) [EU1180-544, 5-fluoro-2-(1-(4-isopropoxyphenyl)-2-(4-(trifluoromethoxy)phenoxy)ethyl)isoindolin-1-one]
101% | CC(C)Oc1ccc(C(COc2ccc(OC(F)(F)F)cc2)N2Cc3ccc(Br)cc3C2=O)cc1 (stereo not drawn) [EU1180-553, 6-bromo-2-(1-(4-isopropoxyphenyl)-2-(4-(trifluoromethoxy)phenoxy)ethyl)isoindolin-1-one]
101% | CC(C)Oc1ccc(C(COc2ccc(OC(F)(F)F)cc2)N2Cc3cc(Br)ccc3C2=O)cc1 (stereo not drawn) [EU1180-554, 5-bromo-2-(1-(4-isopropoxyphenyl)-2-(4-(trifluoromethoxy)phenoxy)ethyl)isoindolin-1-one]
98% | COc1ccc(OCC(c2ccc(OC(C)C)cc2)N2Cc3ccc(C(F)(F)F)cc3C2=O)cc1 (stereo not drawn) [EU1180-558, 2-(1-(4-isopropoxyphenyl)-2-(4-methoxyphenoxy)ethyl)-6-(trifluoromethyl)isoindolin-1-one]
23% | COc1ccc(OCC(c2ccc(OC(C)C)cc2)N2Cc3ccc(F)cc3C2=O)cc1 (stereo not drawn) [EU1180-560, 6-fluoro-2-(1-(4-isopropoxyphenyl)-2-(4-methoxyphenoxy)ethyl)isoindolin-1-one]
88% | COc1ccc(OCC(c2ccc(OC(C)C)cc2)N2Cc3cc(F)ccc3C2=O)cc1 (stereo not drawn) [EU1180-561, 5-fluoro-2-(1-(4-isopropoxyphenyl)-2-(4-methoxyphenoxy)ethyl)isoindolin-1-one]
96% | COc1ccc(OCC(c2ccc(OC(C)C)cc2)N2Cc3ccc(Cl)cc3C2=O)cc1 (stereo not drawn) [EU1180-564, 6-chloro-2-(1-(4-isopropoxyphenyl)-2-(4-methoxyphenoxy)ethyl)isoindolin-1-one]
100% | CC(C)Oc1ccc(C(COc2ccc(C(F)(F)F)cc2)N2Cc3ccc(Cl)cc3C2=O)cc1 (stereo not drawn) [EU1180-573, 6-chloro-2-(1-(4-isopropoxyphenyl)-2-(4-(trifluoromethyl)phenoxy)ethyl)isoindolin-1-one]
76% | CC(C)Oc1ccc(C(COc2ccc(C(F)(F)F)cc2)N2Cc3ccc(F)cc3C2=O)cc1 (stereo not drawn) [EU1180-575, 6-fluoro-2-(1-(4-isopropoxyphenyl)-2-(4-(trifluoromethyl)phenoxy)ethyl)isoindolin-1-one]
104% | CC(C)Oc1ccc(C(COc2ccc(C(F)(F)F)cc2)N2Cc3cc(F)ccc3C2=O)cc1 (stereo not drawn) [EU1180-576, 5-fluoro-2-(1-(4-isopropoxyphenyl)-2-(4-(trifluoromethyl)phenoxy)ethyl)isoindolin-1-one]
108% | CC(C)Oc1ccc(C(COc2ccc(C(F)(F)F)cc2)N2Cc3ccc(Br)cc3C2=O)cc1 (stereo not drawn) [EU1180-577, 6-bromo-2-(1-(4-isopropoxyphenyl)-2-(4-(trifluoromethyl)phenoxy)ethyl)isoindolin-1-one]

More lines, now with the values behind:

Structure (SMILES) | remaining activity at 30 µM
COc1ccc(OCC(c2c(F)cc(OC)cc2F)N2Cc3ccccc3C2=O)cc1 (stereo not drawn) [EU1180-545, 2-(1-(2,6-Difluoro-4-methoxyphenyl)-2-(4-methoxyphenoxy)ethyl)isoindolin-1-one] | 74%
COc1ccc(OCC(c2c(F)cc(OC)cc2F)N2Cc3ccc(C(F)(F)F)cc3C2=O)cc1 (stereo not drawn) [EU1180-546, 2-(1-(2,6-Difluoro-4-methoxyphenyl)-2-(4-methoxyphenoxy)ethyl)-6-(trifluoromethyl)isoindolin-1-one] | 96%
COc1ccc(OCC(c2c(F)cc(OC)cc2F)N2Cc3cc(Cl)ccc3C2=O)cc1 (stereo not drawn) [EU1180-547, 5-Chloro-2-(1-(2,6-difluoro-4-methoxyphenyl)-2-(4-methoxyphenoxy)ethyl)isoindolin-1-one] | 98%
COc1ccc(OCC(c2c(F)cc(OC)cc2F)N2Cc3ccc(Cl)cc3C2=O)cc1 (stereo not drawn) [EU1180-548, 6-Chloro-2-(1-(2,6-difluoro-4-methoxyphenyl)-2-(4-methoxyphenoxy)ethyl)isoindolin-1-one] | 90%
COc1ccc(OCC(c2c(F)cc(OC)cc2F)N2Cc3cc(Br)ccc3C2=O)cc1 (stereo not drawn) [EU1180-549, 5-Bromo-2-(1-(2,6-difluoro-4-methoxyphenyl)-2-(4-methoxyphenoxy)ethyl)isoindolin-1-one] | 95%
COc1ccc(OCC(c2c(F)cc(OC)cc2F)N2Cc3ccc(Br)cc3C2=O)cc1 (stereo not drawn) [EU1180-550, 6-Bromo-2-(1-(2,6-difluoro-4-methoxyphenyl)-2-(4-methoxyphenoxy)ethyl)isoindolin-1-one] | 93%
COc1ccc(OCC(c2c(F)cc(OC)cc2F)N2Cc3cc(F)ccc3C2=O)cc1 (stereo not drawn) [EU1180-551, 2-(1-(2,6-Difluoro-4-methoxyphenyl)-2-(4-methoxyphenoxy)ethyl)-5-fluoroisoindolin-1-one] | 92%
COc1ccc(OCC(c2c(F)cc(OC)cc2F)N2Cc3ccc(F)cc3C2=O)cc1 (stereo not drawn) [EU1180-552, 2-(1-(2,6-Difluoro-4-methoxyphenyl)-2-(4-methoxyphenoxy)ethyl)-6-fluoroisoindolin-1-one] | 70%
COc1ccc(OCC(c2ccc(OC(C)C)cc2)N2Cc3cc(Cl)ccc3C2=O)cc1 (stereo not drawn) [EU1180-559, 5-chloro-2-(1-(4-isopropoxyphenyl)-2-(4-methoxyphenoxy)ethyl)isoindolin-1-one] | 96%
COc1ccc(OCC(c2ccc(OC(C)C)cc2)N2Cc3ccc(Br)cc3C2=O)cc1 (stereo not drawn) [EU1180-562, 6-bromo-2-(1-(4-isopropoxyphenyl)-2-(4-methoxyphenoxy)ethyl)isoindolin-1-one] | 98%
COc1ccc(OCC(c2ccc(OC(C)C)cc2)N2Cc3cc(Br)ccc3C2=O)cc1 (stereo not drawn) [EU1180-563, 5-bromo-2-(1-(4-isopropoxyphenyl)-2-(4-methoxyphenoxy)ethyl)isoindolin-1-one] | 98%
CC(C)Oc1ccc(C(COc2ccc(C(F)(F)F)cc2)N2Cc3ccccc3C2=O)cc1 (stereo not drawn) [EU1180-571, 2-(1-(4-isopropoxyphenyl)-2-(4-(trifluoromethyl)phenoxy)ethyl)isoindolin-1-one] | 94%
CC(C)Oc1ccc(C(COc2ccc(C(F)(F)F)cc2)N2Cc3ccc(C(F)(F)F)cc3C2=O)cc1 (stereo not drawn) [EU1180-572, 2-(1-(4-isopropoxyphenyl)-2-(4-(trifluoromethyl)phenoxy)ethyl)-6-(trifluoromethyl)isoindolin-1-one] | 91%
CC(C)Oc1ccc(C(COc2ccc(C(F)(F)F)cc2)N2Cc3cc(Cl)ccc3C2=O)cc1 (stereo not drawn) [EU1180-574, 5-chloro-2-(1-(4-isopropoxyphenyl)-2-(4-(trifluoromethyl)phenoxy)ethyl)isoindolin-1-one] | 91%
CC(C)Oc1ccc(C(COc2ccc(C(F)(F)F)cc2)N2Cc3cc(Br)ccc3C2=O)cc1 (stereo not drawn) [EU1180-578, 5-bromo-2-(1-(4-isopropoxyphenyl)-2-(4-(trifluoromethyl)phenoxy)ethyl)isoindolin-1-one] | 118%
